# Test results taken from patent US6472415B1, “Androgen receptor suppressors in the therapy and diagnosis of prostate cancer, alopecia and other hyper-androgenic syndromes” (priority 1998, dated 2002).
# Entries after “also recorded” stand apart in the source; their conditions may differ. Like-named read-outs stand apart in the source and are kept apart here.
# What was measured:
# androgen receptor = biological target: T1, androgen receptor (Homo sapiens, UniProt P10275, T878A); assay: Androgen receptor remaining in LNCaP cell lysate, Western Blot; assay type: cell-based; conditions: for Percent of the androgen receptor remaining / Percent Androgen Receptor Remaining / Effect on the AR: LNCaP; for Percent of the androgen receptor remaining: 48 hours; for Percent Androgen Receptor Remaining: Table 7 controls, incubation time not given; for Effect on the AR: Western Blot; for Suppression of the AR: 3 μM concentration; for Elimination of the AR: 10 μM concentration
# T1 construct: endogenous in cells; host or cells: LNCaP human prostate cancer cells
# T1 sequence (P10275 whole entry T878A): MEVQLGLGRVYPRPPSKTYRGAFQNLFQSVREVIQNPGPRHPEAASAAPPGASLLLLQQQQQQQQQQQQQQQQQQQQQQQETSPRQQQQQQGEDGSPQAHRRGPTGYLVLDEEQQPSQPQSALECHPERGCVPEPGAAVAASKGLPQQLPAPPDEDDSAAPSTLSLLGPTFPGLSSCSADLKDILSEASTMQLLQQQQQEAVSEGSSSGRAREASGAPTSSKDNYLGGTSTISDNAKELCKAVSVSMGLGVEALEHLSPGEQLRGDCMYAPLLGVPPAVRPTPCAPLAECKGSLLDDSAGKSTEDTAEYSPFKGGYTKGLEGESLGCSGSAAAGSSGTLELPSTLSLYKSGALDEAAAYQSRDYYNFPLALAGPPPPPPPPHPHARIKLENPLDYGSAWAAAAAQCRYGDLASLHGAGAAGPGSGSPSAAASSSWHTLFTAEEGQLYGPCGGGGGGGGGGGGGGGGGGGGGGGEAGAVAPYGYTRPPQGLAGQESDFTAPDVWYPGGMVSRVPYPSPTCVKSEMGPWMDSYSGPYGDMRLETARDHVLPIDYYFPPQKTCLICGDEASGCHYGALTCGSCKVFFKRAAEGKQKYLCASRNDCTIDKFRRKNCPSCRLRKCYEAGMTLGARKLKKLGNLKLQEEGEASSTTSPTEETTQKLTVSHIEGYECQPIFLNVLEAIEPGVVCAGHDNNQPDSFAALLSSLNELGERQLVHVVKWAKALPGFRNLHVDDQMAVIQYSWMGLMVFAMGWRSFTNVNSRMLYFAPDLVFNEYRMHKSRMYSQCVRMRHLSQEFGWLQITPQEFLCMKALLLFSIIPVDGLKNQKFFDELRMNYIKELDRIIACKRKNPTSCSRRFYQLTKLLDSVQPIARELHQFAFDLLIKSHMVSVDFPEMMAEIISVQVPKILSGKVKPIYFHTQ
# Method: The interaction of the compounds with AR was studied by incubation with LNCaP cells, subsequent cell lysis and the standard Western Blot assay.
# [1] = Tissue distribution 4 hours after intravenous injection in male rats; conditions: 300 g male rats, after 4 hours
# [2] = Systemic toxicity, repeated i.p. injection in mice; assay type: in vivo
# Method: Systemic toxicity was orientationally evaluated by i.p. injection every 2nd day in mice. […] For BP-34, the corresponding values were 150 mg/kg bw and 300 mg/kg bw.
# The maximum tolerated dose should thus be approximately 300 mg/kg. For BP-34, i.p. injections of 100-300 mg/kg produce no mortalities in mice. […] Therefore, the maximum tolerated dose of BP-34 should be approximately 250 mg/kg.
# [3] = tested on: human prostate cancer cells LNCaP; assay: XXT cell viability assay, 72 hours; assay type: cell-based
# Method: After 72 hours, an XXT assay (Scudievo, et al., Cancer Research, 48:4827 (1988)) indicating cell viability was carried out.
# [4] = 38° C., 0.5 mg/mL
# Method: Compounds were tested for stability in human serum at 38° C. They were dissolved in isopropanol/H2O (95:5), mixed with human serum to a concentration of 0.5 mg/mL, and incubated at 38° C. Serum aliquots were extracted with ethyl acetate and analyzed by HPLC.
# (Permadi, H.; Lundgren, B.; Andersson, K.; Sundberg, C.; DePierre, J. W. Effects of perfluoro fatty acids on peroxisome proliferation and mitochondrial size in mouse liver: dose and time factors and effect of chain length. Xenobiotica, 91993) Vol. 23, No. 7, pp.761-70).
# [5] = isopropanol/H2O (95:5), 50° C., up to six days
# [6] = tested on: prostate and seminal vesicles; assay: Weight of prostate and seminal vesicles (secondary sex organs) in rats; assay type: in vivo; conditions: castrated rats supplemented with testosterone propionate
# Method: (The dose of 0.1 mg/kg approximates the expected topical daily dose for humans).
# [7] = Cockshott et al. 1990; cited from earlier work
structure (smiles),measurement,setting,value
CC(O)(CNCCOCCOCCNCC(C)(O)C(=O)Nc1ccc([N+](=O)[O-])c(C(F)(F)F)c1)C(=O)Nc1ccc([N+](=O)[O-])c(C(F)(F)F)c1 (centres unmarked) [BP-676],Percent of the androgen receptor remaining,androgen receptor; 3μ Molar conc.,64%
same,Percent of the androgen receptor remaining,androgen receptor; 10μ Molar conc.,20%
CC(O)(CNC(=O)Nc1ccc(I)cc1)C(=O)Nc1ccc([N+](=O)[O-])c(C(F)(F)F)c1 (centres unmarked) [BP-754],Percent of the androgen receptor remaining,androgen receptor; 3μ Molar conc.,28%
same,Percent of the androgen receptor remaining,androgen receptor; 10μ Molar conc.,14%
CC(O)(COC/C=C/[125I])C(=O)Nc1ccc(C#N)c(C(F)(F)F)c1 (centres unmarked) [BP-636],Accumulation in the prostate vis-a-vis other tissues,[1],substantial accumulation in the prostate
"CC(O)(CN)C(=O)Nc1ccc([N+](=O)[O-])c(C(F)(F)F)c1 (centres unmarked) [BP-34, 4-nitro-3-trifluoromethyl-N-(2-hydroxy-2-methyl-3-aminopropionyl)aniline]","Dose with morbidity, but not mortality",[2]; i.p.,300 mg/kg
same,i.p. doses producing no mortalities,[2]; i.p.,100 to 300 mg/kg
same,Dose with morbidity but no mortality,[2]; i.p. every 2nd day,300 mg/kg bw
same,Dose given without mortality or morbidity,"[2]; i.p. every 2nd day, 5 times",150 mg/kg bw
same,MTD,"[2]; mouse, in vivo, ip, read-out: Maximum tolerated dose",~250 mg/kg
same,Percent Androgen Receptor Remaining,androgen receptor; 3μ Molar conc,97%
same,Percent of the androgen receptor remaining,androgen receptor; 3μ Molar conc.,97%
same,Percent Androgen Receptor Remaining,androgen receptor; 10μ Molar conc,98%
same,Percent of the androgen receptor remaining,androgen receptor; 10μ Molar conc.,98%
same,Effect on the AR,androgen receptor,no effect
same,Effect on the LNCaP cells,[3],no effect
CC(O)(CNCC(C)(O)C(=O)Nc1ccc(Cl)cc1)C(=O)Nc1ccc(Cl)cc1 (centres unmarked),melting point,,76 to 78 °C
CC(O)(CSCC=C([125I])[125I])C(=O)Nc1ccc(C#N)c(C(F)(F)F)c1 (centres unmarked) [BP-554],Accumulation in the prostate vis-a-vis other tissues,[1],substantial accumulation in the prostate
"CCCNC(=S)Nc1ccc(C#N)c(C(F)(F)F)c1 [BP-735, N-(3-trifluoromethyl-4-cyanophenyl), N′-propyl thiourea]",Suppression of the AR,androgen receptor,important suppression
same,Elimination of the AR,androgen receptor,practically eliminated the AR
same,Percent of the androgen receptor remaining,androgen receptor; 3μ Molar conc.,45%
same,Percent of the androgen receptor remaining,androgen receptor; 10μ Molar conc.,1%
"CC(C)(O)C(=O)Nc1ccc([N+](=O)[O-])c(C(F)(F)F)c1 [Hydroxyflutamide, reference compound]",Percent Androgen Receptor Remaining,androgen receptor; 3μ Molar conc,98%
same,Percent of the androgen receptor remaining,androgen receptor; 3μ Molar conc.,98%
same,Percent Androgen Receptor Remaining,androgen receptor; 10μ Molar conc,94%
same,Percent of the androgen receptor remaining,androgen receptor; 10μ Molar conc.,94%
same,Effect on the AR,androgen receptor,have not shown any significant effect on the AR; also recorded: have not shown any significant suppression of the AR
"CC(O)(CNCC(C)(O)C(=O)Nc1ccc([N+](=O)[O-])c(C(F)(F)F)c1)C(=O)Nc1ccc([N+](=O)[O-])c(C(F)(F)F)c1 (centres unmarked) [BP-673, 2-hydroxy-3-((2-hydroxy-2-(N-(4-nitro-3-(trifluoromethyl)phenyl)carbamoyl)propyl)amino)-2-methyl-N-(4-nitro-3-(trifluoromethyl)phenyl)propionamide]",Percent of the intact compound remaining in human serum,[4]; 24 h,100%
same,Percent of the intact compound remaining in human serum,[4]; 48 h,100%
same,Percent of the intact compound remaining in human serum,[4]; 6 d,100%
same,Suppression of the AR,androgen receptor,important suppression
same,Elimination of the AR,androgen receptor,practically eliminated the AR
same,Percent of the androgen receptor remaining,androgen receptor; 3μ Molar conc.,74%
same,Percent of the androgen receptor remaining,androgen receptor; 10μ Molar conc.,3%
same,Change via HPLC in accelerated stability study,[5],no change was observed
"CC(O)(CNC(=S)Nc1ccc(Br)cc1)C(=O)Nc1ccc([N+](=O)[O-])c(C(F)(F)F)c1 (centres unmarked) [BP-668, 3-((((4-bromophenyl)amino)thioxomethyl)amino)-2-hydroxy-2-methyl-N-(4-nitro-3-(trifluoromethyl)phenyl)propanamide]",Reduction of secondary sex organs' weight,[6]; 0.1 mg/kg,did not reduce
same,Percent of the intact compound remaining in human serum,[4]; 24 h,100%
same,Percent of the intact compound remaining in human serum,[4]; 48 h,100%
same,Percent of the intact compound remaining in human serum,[4]; 6 d,100%
same,melting point,,192 to 195 °C
same,Suppression of the AR,androgen receptor,important suppression
same,Elimination of the AR,androgen receptor,practically eliminated the AR
same,Percent of the androgen receptor remaining,androgen receptor; 3μ Molar conc.,73%
same,Percent of the androgen receptor remaining,androgen receptor; 10μ Molar conc.,0%
same,Change via HPLC in accelerated stability study,[5],no change was observed
"CC(O)(CS(=O)(=O)c1ccc(F)cc1)C(=O)Nc1ccc(C#N)c(C(F)(F)F)c1 (centres unmarked) [Bicalutamide, reference compound]",Reduction of secondary sex organs' weight,[6]; 0.5 mg/kg,about 20%
same,"Peak serum levels as % of the dose, reported",[7],0.03%
